Measured values published in patent US20250345392A1, “ANNEXIN A1 LIQUID PHARMACEUTICAL COMPOSITION” (ResoTher Pharma A/S, priority 2022, published 2025).
Like-named read-outs stand apart in the source and are kept apart here. Ends that are not written are not given here.

Assay: Clinical test in humans, three 30-min i.v. infusions 8 hours apart, plasma PK
Type: in vivo
Conditions: human; for time of first measurable concentrations after the start of infusion: each infusion; for half-life / AUC(0-t) / AUC / Cmax / Tmax: in vivo, iv, three 30-min i.v. infusions 8 h apart; for half-life: after the last infusion; for AUC(0-t): read-out: AUC0-24
Experimental: A total of 8 subjects were included in each group. In each group, 6 subjects received the active treatment and 2 received the placebo. The active treatment was as follows in each group: • Group 9 received three 8 hours apart 30-min Peptide 1 intravenous (i.v.) infusions, wherein each i.v. infusion corresponded to a dose of 50 μg/kg. • Group 10 received three 8 hours apart 30-min Peptide 1 intravenous (i.v.) infusions, wherein each i.v. infusion corresponded to a dose of 100 μg/kg. • Group 11 received three 8 hours apart 30-min Peptide 1 intravenous (i.v.) infusions, wherein each i.v. infusion corresponded to a dose of 140 μg/kg. • Group 12 received three 8 hours apart 30-min Peptide 1 intravenous (i.v.) infusions, wherein each i.v. infusion corresponded to a dose of 200 μg/kg. • Group 13 received three 8 hours apart 30-min Peptide 1 intravenous (i.v.) infusions, wherein each i.v. infusion corresponded to a dose of 250 μg/kg.
The tested liquid pharmaceutical composition has a pH of 8.2-8.4, and comprises the following: • i) 5 mg/ml of Peptide 1, • ii) 4% (w/w) mannitol, • iii) 1% (w/w) sucrose, • iv) 0.01% (w/w) Polysorbate-80, • v) 10 mM glycyl-glycine, and • vi) sterile water for injection.
Venous whole blood samples were collected from all subjects.
Plasma samples were analyzed for Peptide 1 using validated Liquid chromatography—Tandem Mass spectrometry (LC-MS/MS) methods by Charles River Laboratories (CRL).
Derivation of PK parameters were carried out by PhinC Development using Phoenix WinNonlin® (Version Phoenix 8.1—Certara—Princeton—USA). A non-compartmental analysis (NCA) approach was chosen.
For the calculation of the PK parameters and characteristics the following rules were applied: • All the plasma concentrations validated by the bioanalytical laboratory and provided to the pharmacokinetics were used for the PK analysis. • The theoretical PK blood sampling time points were used. • At time points in the lag-time between time zero and the first concentration equal or above limit of quantification (LOQ), concentrations below the LOQ (BLQ) were set to zero (0). • Concentrations BLQ between 2 concentrations equal or above LOQ were considered as missing. • Trailing concentrations (at time point between time of last measurable concentrations and time of last blood sample) BLQ were not used in calculations. • For 3 infusions regimen, each infusion was considered separately and BLQ rules were applied for each infusion. […] If the pre-dose value was greater than 5% of Cmax, the subject was dropped from all statistical evaluations.
AUC0-tau was only calculated if there were at least 3 concentrations above LOQ. • AUC0-24: The area under the plasma concentration-time curve from time zero (pre-dose) to 24 h was calculated as the sum of the 3 AUC0-tau: AUC0-24=AUC0-tau1+AUC0-tau2+AUC0-tau3. • AUC0-t: The area under the concentration-time curve from time zero (pre-dose) to the time of last quantifiable concentration was calculated using a linear trapezoidal method after each administration (AUC0-t1, AUC0-t2 and AUC0-t3, where AUC0-t1 was AUC0-t corresponded to the AUC from pre-dose to the last measurable quantifiable concentration following the first infusion). AUC0-t was only calculated if there were at least 3 concentrations above LOQ. • ke: The terminal plasma elimination rate-constant was estimated from log-linear regression analysis of the terminal phase of the plasma concentration-time profile. The number of points included in the terminal phase was determined by visual inspection of the semi-log plots of the plasma concentration-time profiles. A minimum of 3 data points, including the last measured data point and excluding Cmax, had to be available for the regression. The correlation coefficient for the goodness of the fit of the regression line through the data points (r^2) had to be 0.8000 or higher, for the value to be considered reliable. […]

[1] = Group 12 (three infusions of 200 μg/kg)
[2] = Group 13 (three infusions of 250 μg/kg)
[3] = between 50 μg/kg t.i.d. and 250 μg/kg t.i.d. (dose increased by 5-fold)
[4] = between 100 μg/kg t.i.d. and 250 μg/kg t.i.d. (dose increased by 2.5-fold)
[5] = between 140 μg/kg t.i.d. and 250 μg/kg t.i.d. (dose increased by 1.8-fold)
[6] = between 200 μg/kg t.i.d. and 250 μg/kg t.i.d. (dose increased by 1.25-fold)
[7] = 100 ug/kg, 100 μg/kg each, mean
[8] = 140 ug/kg, 140 μg/kg each, mean
[9] = 200 ug/kg, 200 μg/kg each, mean
[10] = 250 ug/kg, 250 μg/kg each, mean

AMVSEFLKQAWFIENEEQEYVQTLKSSKGGPGSAVSPYPTFNPSSDV-NH2 [Peptide 1]
time up to which concentrations were measurable in all subjects after each infusion [1]: at least 4 h
time of first measurable concentrations after the start of infusion [1]: 0.16 h
time up to which concentrations were measurable in all subjects after each infusion [2]: at least 4 h
time of first measurable concentrations after the start of infusion [2]: 0.16 h
increase of GM of AUC0-24 [3]: 4.8 fold
increase of GM of Global Cmax [3]: 5.4 fold
increase of GM of AUC0-24 [4]: 2.1 fold
increase of GM of Global Cmax [4]: 2.2 fold
increase of GM of AUC0-24 [5]: 1.4 fold
increase of GM of Global Cmax [5]: 1.6 fold
increase of GM of AUC0-24 [6]: 0.9 fold
increase of GM of Global Cmax [6]: 1.0 fold
GM accumulation ratios on Cmax and AUC0-tau (between the first and the last infusion, dose range 50-250 μg/kg, no accumulation observed): around 1
half-life (50 ug/kg, 50 μg/kg each, GM): 1.37 h
AUC(0-t) (50 ug/kg, 50 μg/kg each, GM): 1560 ng·h/mL
AUC (50 ug/kg, 50 μg/kg each, GM, read-out: AUC0-t2): 416 ng·h/mL
AUC (50 ug/kg, 50 μg/kg each, GM, read-out: AUC0-t3): 433 ng·h/mL
AUC (50 ug/kg, 50 μg/kg each, GM, read-out: AUC0-tau2): 511 ng·h/mL
AUC (50 ug/kg, 50 μg/kg each, GM, read-out: AUC0-tau3): 538 ng·h/mL
Cmax (50 ug/kg, 50 μg/kg each, GM, read-out: Global Cmax): 420 ng/mL
Tmax (50 ug/kg, 50 μg/kg each, GM, read-out: Global tmax): 4.12 h
Tmax (50 ug/kg, 50 μg/kg each, GM, read-out: tmax3): 16.5 h
half-life (50 ug/kg, 50 μg/kg each, mean): 1.38 h
AUC(0-t) (50 ug/kg, 50 μg/kg each, mean): 1570 ng·h/mL
AUC (50 ug/kg, 50 μg/kg each, mean, read-out: AUC0-t1): 422 ng·h/mL
AUC (50 ug/kg, 50 μg/kg each, mean, read-out: AUC0-t2): 420 ng·h/mL
AUC (50 ug/kg, 50 μg/kg each, mean, read-out: AUC0-t3): 437 ng·h/mL
AUC (50 ug/kg, 50 μg/kg each, mean, read-out: AUC0-tau1): 513 ng·h/mL
Cmax (50 ug/kg, 50 μg/kg each, mean, read-out: Cmax3): 398 ng/mL
Cmax (50 ug/kg, 50 μg/kg each, mean, read-out: Global Cmax): 422 ng/mL
Tmax (50 ug/kg, 50 μg/kg each, median, read-out: Global tmax): 8.5 h
half-life (100 ug/kg, 100 μg/kg each, GM): 2.04 h
AUC (100 ug/kg, 100 μg/kg each, GM, read-out: AUC0-tau1): 1100 ng·h/mL
AUC (100 ug/kg, 100 μg/kg each, GM, read-out: AUC0-tau2): 1240 ng·h/mL
AUC (100 ug/kg, 100 μg/kg each, GM, read-out: AUC0-tau3): 1260 ng·h/mL
Cmax (100 ug/kg, 100 μg/kg each, GM, read-out: Global Cmax): 1020 ng/mL
Tmax (100 ug/kg, 100 μg/kg each, GM, read-out: Global tmax): 11.8 h
half-life [7]: 2.18 h
AUC(0-t) [7]: 3620 ng·h/mL
AUC (100 ug/kg, 100 μg/kg each, mean, read-out: AUC0-t2): 1130 ng·h/mL
AUC (100 ug/kg, 100 μg/kg each, mean, read-out: AUC0-t3): 1090 ng·h/mL
Tmax (100 ug/kg, 100 μg/kg each, median, read-out: Global tmax): 12.5 h
Tmax (100 ug/kg, 100 μg/kg each, median, read-out: tmax3): 16.5 h
AUC (140 ug/kg, 140 μg/kg each, GM, read-out: AUC0-t1): 1660 ng·h/mL
AUC (140 ug/kg, 140 μg/kg each, GM, read-out: AUC0-t2): 1760 ng·h/mL
AUC (140 ug/kg, 140 μg/kg each, GM, read-out: AUC0-tau1): 1740 ng·h/mL
AUC (140 ug/kg, 140 μg/kg each, GM, read-out: AUC0-tau2): 1850 ng·h/mL
AUC (140 ug/kg, 140 μg/kg each, GM, read-out: AUC0-tau3): 1690 ng·h/mL
Cmax (140 ug/kg, 140 μg/kg each, GM, read-out: Global Cmax): 1400 ng/mL
Tmax (140 ug/kg, 140 μg/kg each, GM, read-out: Global tmax): 3.29 h
half-life [8]: 1.94 h
AUC(0-t) [8]: 5410 ng·h/mL
AUC (140 ug/kg, 140 μg/kg each, mean, read-out: AUC0-t1): 1690 ng·h/mL
AUC (140 ug/kg, 140 μg/kg each, mean, read-out: AUC0-t2): 1870 ng·h/mL
AUC (140 ug/kg, 140 μg/kg each, mean, read-out: AUC0-t3): 1600 ng·h/mL
AUC (140 ug/kg, 140 μg/kg each, mean, read-out: AUC0-tau1): 1760 ng·h/mL
AUC (140 ug/kg, 140 μg/kg each, mean, read-out: AUC0-tau2): 1940 ng·h/mL
Cmax (140 ug/kg, 140 μg/kg each, mean, read-out: Global Cmax): 1430 ng/mL
Tmax (140 ug/kg, 140 μg/kg each, median, read-out: Global tmax): 8.41 h
Tmax (140 ug/kg, 140 μg/kg each, median, read-out: tmax3): 16.5 h
half-life (200 ug/kg, 200 μg/kg each, GM): 1.93 h
AUC(0-t) (200 ug/kg, 200 μg/kg each, GM): 8020 ng·h/mL
AUC (200 ug/kg, 200 μg/kg each, GM, read-out: AUC0-t2): 2560 ng·h/mL
AUC (200 ug/kg, 200 μg/kg each, GM, read-out: AUC0-t3): 2690 ng·h/mL
AUC (200 ug/kg, 200 μg/kg each, GM, read-out: AUC0-tau1): 2590 ng·h/mL
AUC (200 ug/kg, 200 μg/kg each, GM, read-out: AUC0-tau2): 2650 ng·h/mL
Cmax (200 ug/kg, 200 μg/kg each, GM, read-out: Global Cmax): 2350 ng/mL
Tmax (200 ug/kg, 200 μg/kg each, GM, read-out: Global tmax): 2.57 h
half-life [9]: 1.94 h
AUC(0-t) [9]: 8120 ng·h/mL
AUC (200 ug/kg, 200 μg/kg each, mean, read-out: AUC0-t1): 2520 ng·h/mL
AUC (200 ug/kg, 200 μg/kg each, mean, read-out: AUC0-t2): 2610 ng·h/mL
AUC (200 ug/kg, 200 μg/kg each, mean, read-out: AUC0-t3): 2720 ng·h/mL
AUC (200 ug/kg, 200 μg/kg each, mean, read-out: AUC0-tau1): 2620 ng·h/mL
AUC (200 ug/kg, 200 μg/kg each, mean, read-out: AUC0-tau2): 2690 ng·h/mL
AUC (200 ug/kg, 200 μg/kg each, mean, read-out: AUC0-tau3): 2810 ng·h/mL
Tmax (200 ug/kg, 200 μg/kg each, median, read-out: Global tmax): 4.5 h
Tmax (200 ug/kg, 200 μg/kg each, median, read-out: tmax3): 16.5 h
AUC(0-t) (250 ug/kg, 250 μg/kg each, GM): 7490 ng·h/mL
AUC (250 ug/kg, 250 μg/kg each, GM, read-out: AUC0-t3): 2410 ng·h/mL
AUC (250 ug/kg, 250 μg/kg each, GM, read-out: AUC0-tau1): 2590 ng·h/mL
AUC (250 ug/kg, 250 μg/kg each, GM, read-out: AUC0-tau2): 2390 ng·h/mL
Cmax (250 ug/kg, 250 μg/kg each, GM, read-out: Global Cmax): 2260 ng/mL
Tmax (250 ug/kg, 250 μg/kg each, GM, read-out: Global tmax): 3.69 h
Tmax (250 ug/kg, 250 μg/kg each, GM, read-out: tmax1): 0.46 h
half-life [10]: 1.88 h
AUC(0-t) [10]: 7550 ng·h/mL
AUC (250 ug/kg, 250 μg/kg each, mean, read-out: AUC0-t1): 2540 ng·h/mL
AUC (250 ug/kg, 250 μg/kg each, mean, read-out: AUC0-t2): 2350 ng·h/mL
